Assays:
GABAB receptors = biological target: T1, GABAB receptors (Rattus norvegicus, UniProt Q9Z0U4); test: GABAB Receptor Binding Assay ([3H]GABA, rat brain synaptosomes); details: 5 nM [3H]GABA, rat brain synaptosomes, 20° C., 30 min
T1 construct: Rat brain synaptosomes are used as a source of GABAB receptors; from tissue; host or cells: rat brain synaptosomes
Method: GABAB Receptor Binding Assay
The percentage inhibition of GABA binding to GABAB receptors is measured by tritiated GABA ([^3 H]GABA) determination of the degree of binding by scintillation counting. Rat brain synaptosomes are used as a source of GABAB receptors. An incubation medium is prepared from the following: 20 μg/mL of the compound to be tested as a solution in 1% DMSO/water; 5 nM [^3 H]GABA; 50 mM Tris buffer (pH 7.5); and 2.5 mM CaCl2. The medium also contains 40 μM isoguvacine to selectively block binding to GABAA receptors. The synaptosome (200 μg/mL) is added to the incubation medium and incubated for 30 minutes at 20° C. The incubation is terminated by filtration and counted to determine the percentage inhibition of [^3 H]-GABA binding. The results are reported as IC50 values for those compounds inhibiting [^3 H]-GABA binding by >50%.

[1] = test system: seizure in rats induced by PTZ; test: Prevention of seizure in rats induced by PTZ; type: in vivo, rat; details: PTZ model
Method: Animal Models for Absence Seizures
A. Snead, Eur. J. Pharmacol., 213, 343-349 (1992), teaches a pharmacological model for testing the effectiveness of GABAB antagonists in preventing seizures induced by intra-peritoneal (ip) administration of either γ-butyrolactone (GBL) or pentylenetetrazole (PTZ) to rats. The animal is treated with the test compound, then monitored after being subjected to a dose of either GBL or PTZ sufficient to induce seizures.

[2] = test system: seizure in lethargic (lh/lh) mice; test: Prevention of seizure in lethargic (lh/lh) mice; type: in vivo
Text: B. Hosford, et al., Science, 257, 398-401 (Jul. 17, 1992), teaches a pharmacological model for testing the effectiveness of GABAB antagonists as anticonvulsants for the treatment of absence seizures by administering the compound to be tested to lethargic (lh/lh) mice, a mutant strain with spontaneous seizures.

[3] = test system: Respiratory Depressant Effect of Baclofen; test: Inhibition of Respiratory Depressant Effect of Baclofen; type: in vivo, guinea pig; details: for % Inhibition: mean ± SEM; for ED50: Cavia porcellus
Method: (§1) Animal Model for Respiratory Depression:
Place unanesthetized guinea pigs in a head-out plethysmograph and expose to a CO2 enriched gas mixture (10% CO2, 21% O2, 69% N2) for 10 min., (see Danko, et al., J. Pharm. Methods, 19, 165-173 (1988)). Plethysmograph pressure is detected with a transducer connected to a chart recorder. Minute ventilation is calculated as the product of tidal volume and respiratory frequency. The compound to be tested is administered orally, subcutaneously (sc), intraperitoneally (ip) or via an intracerebroventricular route (icv). Baclofen (3 mg/kg, sc) was given 30 min before exposure to the CO2 enriched gas. […] A 40 or 30 min. preteratment is used for the subcutaneous and intraperitoneal routes, respectively. The vehicle for oral, sc or ip administration is saline. For icv administration, single icv cannulae are placed in the lateral ventricle of anesthetized guinea pigs, (see McLeod, et al., Eur. J. Pharmacol., 209, 141-142 (1988)). The animals are allowed to recover approximately one week prior to use for ventilation experiments. The vehicle for icv administration is artificial cerebrospinal fluid (CSF).

[4] = test system: Respiratory Depressant Effect of Baclofen; test: Reversal of the Respiratory Depressant Effect of Baclofen via icv Administration; type: in vivo, guinea pig; details: 50 μg in 10 μl of vehicle, icv, 5 min before measurement of ventilation; mean ± SEM
Method: as §1
Place unanesthetized guinea pigs in a head-out plethysmograph and expose to a CO2 enriched gas mixture (10% CO2, 21% O2, 69% N2) for 10 min., (see Danko, et al., J. Pharm. Methods, 19, 165-173 (1988)). Plethysmograph pressure is detected with a transducer connected to a chart recorder. Minute ventilation is calculated as the product of tidal volume and respiratory frequency. The compound to be tested is administered orally, subcutaneously (sc), intraperitoneally (ip) or via an intracerebroventricular route (icv). Baclofen (3 mg/kg, sc) was given 30 min before exposure to the CO2 enriched gas. When given by the oral route, the compounds is administered 1, 3, 5 or 7 h before exposure to CO2 enriched gas. A 40 or 30 min. preteratment is used for the subcutaneous and intraperitoneal routes, respectively. The vehicle for oral, sc or ip administration is saline. For icv administration, single icv cannulae are placed in the lateral ventricle of anesthetized guinea pigs, (see McLeod, et al., Eur. J. Pharmacol., 209, 141-142 (1988)). The animals are allowed to recover approximately one week prior to use for ventilation experiments. The vehicle for icv administration is artificial cerebrospinal fluid (CSF).

T1 sequence (Q9Z0U4 17-960 limits assumed): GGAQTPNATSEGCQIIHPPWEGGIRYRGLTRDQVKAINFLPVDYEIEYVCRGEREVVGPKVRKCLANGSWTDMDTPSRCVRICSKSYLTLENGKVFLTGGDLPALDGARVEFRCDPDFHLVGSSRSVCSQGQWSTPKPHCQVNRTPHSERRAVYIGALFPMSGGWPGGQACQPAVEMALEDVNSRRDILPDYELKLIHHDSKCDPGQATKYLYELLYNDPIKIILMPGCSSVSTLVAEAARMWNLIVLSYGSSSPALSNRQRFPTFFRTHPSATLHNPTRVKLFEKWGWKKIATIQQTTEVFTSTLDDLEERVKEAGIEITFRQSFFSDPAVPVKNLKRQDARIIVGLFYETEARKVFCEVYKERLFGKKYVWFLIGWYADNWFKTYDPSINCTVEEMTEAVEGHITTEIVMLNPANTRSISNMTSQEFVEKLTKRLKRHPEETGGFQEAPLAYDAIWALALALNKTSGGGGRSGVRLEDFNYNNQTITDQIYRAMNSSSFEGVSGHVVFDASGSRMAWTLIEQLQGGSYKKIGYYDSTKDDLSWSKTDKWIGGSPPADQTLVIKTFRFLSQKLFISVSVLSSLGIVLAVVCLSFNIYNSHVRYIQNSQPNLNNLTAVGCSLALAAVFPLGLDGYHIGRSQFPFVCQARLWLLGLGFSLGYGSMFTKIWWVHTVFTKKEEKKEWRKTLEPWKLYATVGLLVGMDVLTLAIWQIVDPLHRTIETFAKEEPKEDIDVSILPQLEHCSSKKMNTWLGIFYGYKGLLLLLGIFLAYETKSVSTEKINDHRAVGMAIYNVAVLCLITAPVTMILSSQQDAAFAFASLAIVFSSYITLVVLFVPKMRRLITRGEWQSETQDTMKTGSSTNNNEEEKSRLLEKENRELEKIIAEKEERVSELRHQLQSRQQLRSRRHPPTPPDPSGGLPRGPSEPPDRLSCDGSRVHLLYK
T1 sequence (O88871 41-940 partner): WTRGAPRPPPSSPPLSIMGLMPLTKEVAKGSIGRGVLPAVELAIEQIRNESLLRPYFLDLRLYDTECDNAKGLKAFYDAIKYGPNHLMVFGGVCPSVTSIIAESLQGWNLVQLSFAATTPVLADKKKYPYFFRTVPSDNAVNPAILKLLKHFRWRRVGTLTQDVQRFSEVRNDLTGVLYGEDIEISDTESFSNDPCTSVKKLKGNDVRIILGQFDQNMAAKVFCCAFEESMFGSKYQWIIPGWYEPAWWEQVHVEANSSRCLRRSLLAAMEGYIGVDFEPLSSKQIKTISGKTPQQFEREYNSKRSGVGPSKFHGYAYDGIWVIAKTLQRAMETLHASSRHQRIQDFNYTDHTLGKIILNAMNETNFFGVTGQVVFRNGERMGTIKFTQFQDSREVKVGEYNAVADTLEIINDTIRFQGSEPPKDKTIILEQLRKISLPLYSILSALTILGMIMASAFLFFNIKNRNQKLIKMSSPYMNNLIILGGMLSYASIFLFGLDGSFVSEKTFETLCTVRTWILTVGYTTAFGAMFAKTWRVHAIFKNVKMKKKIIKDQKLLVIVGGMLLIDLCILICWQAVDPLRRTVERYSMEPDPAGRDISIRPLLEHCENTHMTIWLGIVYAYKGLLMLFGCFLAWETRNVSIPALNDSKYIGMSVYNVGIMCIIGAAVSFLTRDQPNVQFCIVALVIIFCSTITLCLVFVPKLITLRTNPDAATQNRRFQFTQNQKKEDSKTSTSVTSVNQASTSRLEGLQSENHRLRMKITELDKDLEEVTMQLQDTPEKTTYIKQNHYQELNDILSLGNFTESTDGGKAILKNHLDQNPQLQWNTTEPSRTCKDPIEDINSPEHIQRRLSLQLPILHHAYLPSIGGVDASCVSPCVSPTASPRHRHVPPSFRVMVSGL

IC50 (GABAB receptors): 2000 nM
Structure (SMILES): CC1(C)COC(CC(=O)O)CN1 (single isomer, unassigned) [Example 6A]
SWD duration ([1]; 0.18 mg/kg, 20 min): 250 s | SWD duration ([1]; 0.18 mg/kg, 40 min): 235 s | SWD duration ([1]; 0.18 mg/kg, 60 min): 140 s | SWD duration ([1]; 0.18 mg/kg, 80 min): 60 s | SWD duration ([1]; 0.18 mg/kg, 100 min): 15 s | SWD duration ([1]; 0.18 mg/kg, 120 min): 0 s | SWD duration ([1]; 0.375 mg/kg, 20 min): 150 s | SWD duration ([1]; 0.375 mg/kg, 40 min): 140 s | SWD duration ([1]; 0.375 mg/kg, 60 min): 55 s | SWD duration ([1]; 0.375 mg/kg, 80 min): 25 s | SWD duration ([1]; 0.375 mg/kg, 100 min): 0 s | SWD duration ([1]; 0.375 mg/kg, 120 min): 0 s | SWD duration ([1]; 0.75 mg/kg, 20 min): 90 s | SWD duration ([1]; 0.75 mg/kg, 40 min): 70 s | SWD duration ([1]; 0.75 mg/kg, 60 min): 45 s | SWD duration ([1]; 0.75 mg/kg, 80 min): 0 s | SWD duration ([1]; 0.75 mg/kg, 100 min): 0 s | SWD duration ([1]; 0.75 mg/kg, 120 min): 0 s | SWD duration ([1]; 1.5 mg/kg, 20 min): 0 s | SWD duration ([1]; 1.5 mg/kg, 40 min): 0 s | SWD duration ([1]; 1.5 mg/kg, 60 min): 0 s | SWD duration ([1]; 1.5 mg/kg, 80 min): 0 s | SWD duration ([1]; 1.5 mg/kg, 100 min): 0 s | SWD duration ([1]; 1.5 mg/kg, 120 min): 0 s | Seizures (% vehicle) in 120 min. ([2]; 1.0 mg/kg ip): 85% | Seizures (% vehicle) in 120 min. ([2]; 3.0 mg/kg ip): 60% | Seizures (% vehicle) in 120 min. ([2]; 10 mg/kg ip): 15% | Seizures (% vehicle) in 120 min. ([2]; 30 mg/kg ip): 5% | % Inhibition ([3]; 0.3 mg/kg ip): 39 ± 10% | % Inhibition ([3]; 0.3 mg/kg sc): 27 ± 6% | % Inhibition ([3]; 1.0 mg/kg ip): 32 ± 7% | % Inhibition ([3]; 1.0 mg/kg oral, 60 min prior to baclofen): 36 ± 13% | % Inhibition ([3]; 1.0 mg/kg sc): 66 ± 7% | % Inhibition ([3]; 3.0 mg/kg ip): 59 ± 7% | % Inhibition ([3]; 3.0 mg/kg oral, 60 min prior to baclofen): 51 ± 13% | % Inhibition ([3]; 3.0 mg/kg sc): 97 ± 25% | % Inhibition ([3]; 10 mg/kg ip): 100 ± 9% | % Inhibition ([3]; 10 mg/kg oral, 60 min prior to baclofen): 68 ± 13% | % Inhibition ([3]; 10 mg/kg sc): 99 ± 11% | % Inhibition ([3]; 30 mg/kg oral, 60 min prior to baclofen): 78 ± 29% | ED50 ([3]; ip): 1.9 mg/kg | ED50 ([3]; sc): 0.63 mg/kg | ED50 ([3]; oral, 60 min prior to baclofen): 3 mg/kg | % Inhibition [4]: 99 ± 23%

— patent US5929236A, “2-substituted morpholine and thiomorpholine derivatives as GABA-B antagonists” (Schering Corporation, priority 1995, dated 1999)
